TGI and GI50 data for 17 compounds are collected here from PubChem BioAssay (NCI).

Holding throughout (assay): NCI tumour cell line growth inhibition, 48 h
Assay [1] relates to A498 renal.
Assay [2] relates to DU-145 prostate.
In assay [3] the test system is HCC-2998 colon.
The subject of assay [4] is HOP-62 NSCLC.
In assay [5] the test system is NCI-H226 lung.
The subject of assay [6] is RXF 393 renal.
The subject of assay [7] is SF-268 CNS.
The test system of assay [8] is SNB-75 CNS.
In assay [9] the test system is UACC-257 melanoma.
Assay [10] deals with UO-31 renal.

Where “and” joins values, the source holds several entries; their conditions need not be identical. Equal values may be shown once.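 48-hour exposure; five concentrations; linearly interpolated endpoints. GI50 marks 50% less growth. TGI is the concentration that stops growth completely.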

Consider `C=C1CC2(OC1=O)c1ccccc1C=Cc1ccccc12`, for which the TGI in [1] came out at 25 µM; in [2], 23.6 µM; in assay [3], 13.5 µM; in [4] it was 24.9 µM; in assay [5], 11.2 µM; in assay [6], 8.12 µM. Moreover, the TGI in assay [7] stood at 17.4 µM; in assay [8], 20.2 µM; in assay [9] it was 10.2 µM; in assay [10] it was 15.7 µM.
For `CN(C)CCOc1nc2c3cccnc3cc(-c3cccc(Cl)c3)c2c2ncccc12`, the GI50 is 2.6 µM in [1]; 1.84 µM in assay [2]; 1.43 µM in assay [3]; 1.43 µM in assay [4]; 6.09 µM in assay [5]; 1.39 µM in assay [6]. Moreover, the GI50 is 1.17 µM in assay [7], 1.23 µM in assay [8], 1.89 µM in assay [9] and 1.09 µM in [10]. For the same compound, the TGI came out at 10.8 µM in [1]; 4.26 µM in [2]; 2.93 µM in assay [3]; 3.26 µM in assay [4]; 24.6 µM in [5]; 2.8 µM in [6]. Further, the TGI in [7] is 4.37 µM; in assay [8], 7.78 µM; in [9], 3.6 µM; in [10], 2.73 µM.
Take `CCN(CC)CCCCCOc1cc(O)c2c(=O)cc(-c3ccccc3)oc2c1`: the GI50 in assay [1] is 2.46 µM; in assay [2] it was 4.61 µM; in assay [3], 0.386 µM; in [4], 2.43 µM; in [5] it was 10.5 µM; in assay [6], 1.6 µM. Further, the GI50 in assay [7] is 7.82 µM; in assay [8], 13 µM; in assay [9] it was 1.81 µM; in [10], 1.85 µM. Moreover, the TGI came out at 9.48 µM in assay [1]; 17.4 µM in [2]; 2.35 µM in assay [3]; 9.71 µM in assay [4]; 25.8 µM in [5]; 3.37 µM in assay [6]. The TGI in assay [7] is 25.5 µM; in [8] it was 25.6 µM; in assay [9], 3.55 µM; in assay [10], 3.64 µM.
Take `O=C(NCCCNC(=O)OCc1ccc2c(Br)cc(Br)c(O)c2n1)OCc1ccc2c(Br)cc(Br)c(O)c2n1`: the GI50 in [1], in [2], in [3], in assay [4], in assay [5] and in assay [6] was greater than 100 µM throughout. Besides, the GI50 in assay [7], in [8], in assay [9] and in assay [10] was greater than 100 µM throughout. The TGI in [1], in assay [2], in assay [3], in assay [4], in assay [5] and in assay [6] was greater than 100 µM in each case. The TGI in assay [7], in assay [8], in [9] and in assay [10] was greater than 100 µM each time.
For `CCCCCCNC(=O)Oc1ccc(/C(=C(\C)c2ccccc2)c2ccc(OCCN3CCCCC3)cc2)cc1`, the GI50 in assay [1] was 7.46 µM; in assay [2], 3.69 µM; in assay [3], 2.96 µM; in assay [4], 3.22 µM; in assay [5] it was 5.91 µM; in assay [6], 1.52 µM. The GI50 in assay [7] was 4.26 µM; in assay [8], 2.01 µM; in [9], 2.69 µM; in assay [10], 1.38 µM. Moreover, the TGI in assay [1] amounted to 21.6 µM; in assay [2] it was 15.3 µM; in [3], 8.92 µM; in assay [4], 10.9 µM; in [5], 21.4 µM; in assay [6], 3.32 µM. Moreover, the TGI in assay [7] stood at 20.2 µM; in [8] it was 10.1 µM; in [9] it was 9.16 µM; in assay [10], 2.86 µM.
In the case of `CS(=O)c1ccc(-c2nc(-c3ccc(F)cc3)c(-c3ccncc3)[nH]2)cc1` (centres undefined), the GI50 is 10.6 µM in assay [1]; 31.7 µM in assay [2]; 33.6 µM in assay [3]; greater than 100 µM in assay [4]; 24.7 µM in [5]; 15.7 µM in assay [6]. For the same compound, the GI50 is 49.4 µM in assay [7], greater than 44.6 µM in assay [8], 16.3 µM in assay [9] and 20.1 µM in assay [10]. Moreover, the TGI in [1] was 53.5 µM; in assay [2], greater than 100 µM; in [3] it was greater than 89.7 µM; in assay [4] it was greater than 100 µM; in assay [5] it was greater than 73.1 µM; in assay [6] it was 39.3 µM. In addition, the TGI in assay [7] is greater than 100 µM; in assay [8] it was greater than 100 µM; in assay [9], 41.6 µM; in assay [10], greater than 79.6 µM.
For `COc1ccc(C2C(c3ccccc3)C(=O)N2c2cc(OC)c(OC)c(OC)c2)cc1I` (centres undefined), the GI50 in [1] was 0.241 µM; in assay [2], 0.332 µM; in assay [3], 0.567 µM; in assay [4], 0.57 µM; in assay [5] it was 15.6 µM; in [6] it was 0.324 µM. Moreover, the GI50 in assay [7] was 0.712 µM; in [8] it was 6.01 µM; in assay [9], greater than 100 µM; in assay [10], 0.693 µM. Also, the TGI in [1] was 0.777 µM; in [2], 75.4 µM; in assay [3] it was greater than 100 µM; in [4], greater than 100 µM; in assay [5] it was greater than 100 µM; in assay [6], greater than 100 µM. The TGI in assay [7], in assay [8], in [9] and in [10] was greater than 100 µM throughout.
For the compound `COc1cc(-c2nn(C(=O)NS(=O)(=O)c3ccc(C)cc3)cc2-c2ccncc2)ccc1Cl`, the GI50 is 6.98 µM in [1]; 6.88 µM in [2]; 11.4 µM in assay [3]; 2.9 µM in assay [4]; 2.88 µM in assay [5]; 2.67 µM in assay [6]. The GI50 in assay [7] is 4.32 µM; in [8] it was 1.69 µM; in assay [9] it was 12.1 µM; in assay [10], 3.74 µM. Further, the TGI in [1] is 39.6 µM; in assay [2], 75.7 µM; in assay [3], 35.8 µM; in assay [4], 10.8 µM; in assay [5], 14.8 µM; in assay [6], 12 µM. Further, the TGI was greater than 100 µM in assay [7], 7.52 µM in assay [8], 60.2 µM in assay [9] and 16 µM in [10].
With `COc1cccc(Cn2cc3c(c2)-c2oncc2CC3)c1`, the GI50 in [1] was 0.239 µM; in assay [2], 0.314 µM; in assay [3], 0.442 µM; in assay [4], 0.528 µM; in assay [5] it was 2.72 µM; in assay [6], 0.368 µM. The GI50 in assay [7] was 0.918 µM; in assay [8] it was 0.211 µM; in assay [9], 4.13 µM; in [10], 0.671 µM. Besides, the TGI is 1.19 µM in assay [1]; 1.24 µM in [2]; 7.98 µM in assay [3]; greater than 100 µM in assay [4]; greater than 100 µM in assay [5]; greater than 100 µM in [7]. The TGI in [8] was 0.895 µM; in [9], greater than 79.7 µM; in [10], 43.7 µM.
Regarding `COc1ccc(/C(Cl)=C(\C=O)c2ccc(OC)c(OC)c2)cc1OC`, the TGI in assay [1] was greater than 100 µM; in assay [2] it was greater than 100 µM; in assay [3], greater than 100 µM; in [4], greater than 100 µM; in assay [5] it was 99.9 µM; in [6], 99.7 µM. Further, the TGI in assay [7] is greater than 39.8 µM; in assay [8], 41 µM; in assay [9] it was greater than 66.3 µM; in assay [10], greater than 100 µM.
Turning to `CCCCCC(=O)OCC(=O)O[C@@H]1C[C@]2(C(C)C)O[C@@]1(C)[C@@H]1CC[C@@H](C)[C@H]1[C@@H]2OC(=O)/C=C/c1ccccc1`, the GI50 in assay [1] was 0.0525 µM; in assay [2] it was greater than 48.4 µM; in assay [3], greater than 62.3 µM; in [4], greater than 74.6 µM; in assay [5], 50.6 µM; in assay [6], 0.127 µM. Also, the GI50 in assay [7] is 4.08 µM; in [8] it was 42.4 µM; in assay [9], greater than 55.7 µM; in [10] it was 0.0408 µM. The TGI in assay [1] was 0.306 µM; in assay [2] it was greater than 72.4 µM; in assay [3] it was greater than 100 µM; in assay [4], greater than 100 µM; in [5], greater than 100 µM; in assay [6], greater than 6.51 µM. The TGI in assay [7] is greater than 84.7 µM; in [8] it was greater than 87.6 µM; in assay [9], greater than 89.2 µM; in assay [10] it was 0.254 µM.
As for `O=C(O)C(Br)C(Br)c1ccccc1[N+](=O)[O-]` (centres undefined), the TGI in assay [1], in assay [2], in assay [3], in assay [4], in [5] and in assay [6] was greater than 100 µM each time. In addition, the TGI in assay [7] was greater than 100 µM; in assay [8] it was greater than 100 µM; in [9], greater than 100 µM; in [10] it was 94.9 µM.
As for `O=C1NC(=O)C2(CCC(O)C2)c2cc[n+]([O-])cc21` (centres undefined), the TGI in assay [1], in assay [2], in [3], in assay [4], in [5] and in [6] was greater than 100 µM in each case. Also, the TGI in assay [7], in assay [8], in [9] and in assay [10] was greater than 100 µM each time.
As for `CC1CCC2C(C)C3C(CC4C5CC=C6CC(OC7OC(CO)C(O)C(OC8OC(CO)C(O)C(O)C8O)C7OC7OC(C)C(O)C(O)C7O)CCC6(C)C5CCC43C)N2C1` (centres undefined), the GI50 in assay [1], in [2], in assay [3], in [4], in assay [5] and in assay [6] was greater than 2.5 µg/mL throughout. Also, the GI50 in assay [7], in assay [8], in assay [9] and in assay [10] was greater than 2.5 µg/mL throughout. Moreover, the TGI in assay [1] is 31.7 µM and > 2.5 µg/mL; in assay [2], 38.7 µM and > 2.5 µg/mL; in [3] it was 35 µM and > 2.5 µg/mL; in assay [4], 32.2 µM and > 2.5 µg/mL; in [5] it was 44.3 µM and > 2.5 µg/mL; in assay [6], 22.3 µM and > 2.5 µg/mL. The TGI in assay [7] is 34.1 µM and > 2.5 µg/mL; in assay [8] it was 24.7 µM and > 2.5 µg/mL; in assay [9] it was 33.2 µM and > 2.5 µg/mL; in assay [10], 14.5 µM and > 2.5 µg/mL.
For `CS(=O)(=O)OCCN(CCOS(C)(=O)=O)c1ccc(C=Nc2ccc3oc(=O)ccc3c2)cc1`, the TGI in assay [1] was found to be 4.67 µM; in assay [2] it was 35.9 µM; in assay [3], 7.77 µM; in assay [4], 34.1 µM; in assay [5], 21.9 µM; in assay [6], 1.89 µM. Besides, the TGI in assay [7] was found to be 74.3 µM; in assay [8] it was 26.1 µM; in assay [9], 26.9 µM; in assay [10], 2.96 µM.
For `CC(=O)NCCCCCCNC(C)=O`, the TGI in [1] is greater than 9690 µM; in assay [2], greater than 10000 µM; in assay [3], greater than 8610 µM; in assay [4], greater than 10000 µM; in assay [5] it was greater than 10000 µM; in assay [6] it was greater than 10000 µM. For the same compound, the TGI was greater than 10000 µM in assay [7], 8830 µM in assay [8], greater than 10000 µM in assay [9] and greater than 10000 µM in assay [10].
As to `CCOC(=O)CNC(=O)CCCn1c(=O)c2c3ccccc3n(C)c2n2nnc(-c3ccccc3)c12`, the GI50 was 7.29 µM in assay [1]; 32 µM in [2]; greater than 50 µM in assay [3]; 5.88 µM in assay [4]; 25.1 µM in assay [5]; 1.33 µM in assay [6]. Further, the GI50 in [7] is 14.2 µM; in [8], 1.12 µM; in assay [9], greater than 50 µM; in [10], 47.8 µM. The TGI was 24.6 µM in [1]; greater than 50 µM in [2]; greater than 50 µM in [3]; 17.7 µM in assay [4]; greater than 50 µM in assay [5]; 4.41 µM in assay [6]. Besides, the TGI in assay [7] is greater than 50 µM; in [8], 3.59 µM; in [9], greater than 50 µM; in [10] it was greater than 50 µM.
